Data reported in patent US8178658B2 (Dow AgroSciences, LLC, priority 2008, dated 2012).

Tests used:
[1] = system: beet armyworm (BAW; Spodoptera exigua: Lepidoptera); test: 128-well diet tray assay on beet armyworm (BAW 50); assay type: in vivo; details: for BAW 50 ug/cm2: 128-well diet tray assay, 50 μg/cm^2 of test compound on diet, second instar BAW larvae, mortality class; for pest or weed control at 50 µg/cm2, 50 µg/cm2: Spodoptera exigua, 144 h, read-out: BAW 50 ug/cm2
In short: (§1)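 Spodoptera exigua eggs on artificial diet in 96-well plates, surface-treated with 12 μg compound in DMSO-acetone-water; dark, 29° C, mortality at 6 d, six replicates. 128-well trays: second-instar larvae on diet treated at 50 μg/cm^2, 25° C, 14:10 light-dark, six days, mortality averaged over eight wells.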

[2] = system: beet armyworm (BAW; Spodoptera exigua: Lepidoptera); test: 96-well microtiter plate-based high throughput (HTS) diet bioassay on beet armyworm (BAW HTS); assay type: in vivo; details: for BAW HTS: BAW eggs, 12 μg test compound per well, mortality at 6 d post-treatment, mortality class; for pest or weed control at 12 µg/well, 12 µg/well: Spodoptera exigua, 144 h, read-out: BAW HTS
In short: as §1

[3] = 96-well microtiter plate HTS diet assay

Compound | BAW 50 ug/cm2 [1] | BAW HTS ([2]; 96-well HTS diet assay) | BAW HTS [2, 3] | pest or weed control at 50 µg/cm2, 50 µg/cm2 [1] | pest or weed control at 12 µg/well, 12 µg/well [2]
CCO[C@@H]1[C@@H](OC)[C@H](C)O[C@@H](OC(=O)Nc2ccc(N3CC(=O)N(c4ccc(OC(F)(F)C(F)(F)F)cc4)CC3=O)cc2)[C@@H]1OC [Compound 243] | B (either (1) the compound was tested and less than 50 percent mortality was observed or (2) the compound was not tested) | B (either (1) the compound was tested and less than 50 percent mortality was observed or (2) the compound was not tested) | B (either (1) the compound was tested and less than 50 percent mortality was observed or (2) the compound was not tested) |  | 
CO[C@H]1[C@H](C)O[C@H](OC(=O)Nc2ccc(-c3ncn(-c4ccc(OC(F)(F)C(F)(F)F)cc4)n3)cc2)C[C@@H]1OC [Compound 245] | A (the compound was tested and at least 50 percent mortality was observed) | B (either (1) the compound was tested and less than 50 percent mortality was observed or (2) the compound was not tested) | B (either (1) the compound was tested and less than 50 percent mortality was observed or (2) the compound was not tested) |  | 
CCO[C@@H]1[C@@H](OC)[C@H](C)O[C@@H](OC(=O)Nc2ccc(-c3ccc(-c4ccc(OC(F)(F)F)cc4)nn3)cc2)[C@@H]1OC [Compound 248] | B (either (1) the compound was tested and less than 50 percent mortality was observed or (2) the compound was not tested) | B (either (1) the compound was tested and less than 50 percent mortality was observed or (2) the compound was not tested) | B (either (1) the compound was tested and less than 50 percent mortality was observed or (2) the compound was not tested) |  | 
CCO[C@@H]1[C@@H](OC)[C@H](C)O[C@@H](OC(=O)Nc2ccc(-c3nn(-c4ccc(C(F)(F)F)cc4)c(=O)o3)cc2)[C@@H]1OC [Compound 249] | B (either (1) the compound was tested and less than 50 percent mortality was observed or (2) the compound was not tested) | B (either (1) the compound was tested and less than 50 percent mortality was observed or (2) the compound was not tested) | B (either (1) the compound was tested and less than 50 percent mortality was observed or (2) the compound was not tested) |  | 
CCO[C@@H]1[C@@H](OC)[C@H](C)O[C@@H](OC(=O)N(C)c2ccc(-c3ncn(-c4ccc(OC(F)(F)F)cc4)n3)cc2)[C@@H]1OC [Compound 250, methyl {4-[1-(4-trifluoromethoxyphenyl)-1H-[1,2,4]triazol-3-yl]-phenyl}-carbamic acid (2S,3R,4R,5S,6S)-4-ethoxy-3,5-dimethoxy-6-methyl-tetrahydropyran-2-yl ester] | A (the compound was tested and at least 50 percent mortality was observed) |  | B (either (1) the compound was tested and less than 50 percent mortality was observed or (2) the compound was not tested) | > 50% | < 50%
CCO[C@@H]1[C@@H](OC)[C@H](C)O[C@@H](OC(=O)N(C)c2ccc(-c3ncn(-c4ccc(OC(F)(F)C(F)(F)F)cc4)n3)cc2)[C@@H]1OC [Compound 251, methyl {4-[1-(4-pentafluoroethoxy-phenyl)-1H-[1,2,4]triazol-3-yl]-phenyl}-carbamic acid (2S,3R,4R,5S,6S)-4-ethoxy-3,5-dimethoxy-6-methyl-tetrahydropyran-2-yl ester] | A (the compound was tested and at least 50 percent mortality was observed) |  | B (either (1) the compound was tested and less than 50 percent mortality was observed or (2) the compound was not tested) | > 50% | < 50%
